Experimental data as given in PubChem BioAssay AID1996.
≈ marks a conversion by molar mass, not a printed value.

Details: buffer; pH 7.4; 200.0 µM

SMILES | solubility kinetic [µg/mL]
CCCn1c(CCNC(=O)c2ccco2)nc2ccccc21 | 41.7 (≈ 140 µM)
CC1CC(C)CN(S(=O)(=O)c2cccc3nsnc23)C1 (centres undefined) | 8.4 (≈ 27 µM)
CC1CCN(C(=O)c2ccc(NC(=O)c3cccs3)cc2)CC1 | 44.7 (≈ 136 µM)
CCNc1nc(-c2cc(C)n(Cc3ccco3)c2C)cs1 | 5.2 (≈ 17.3 µM)
COc1ccc(C2NC(=O)NC(C)=C2[N+](=O)[O-])cc1OC (centres undefined) | > 44
CC(=O)c1ccc(C(=O)NC2CCCN(Cc3ccccc3F)C2)cc1 (centres undefined) | > 53.2
O=C(CSc1nc(O)c(Cc2ccccc2)c(=O)[nH]1)N1CCOCC1 | 40.2 (≈ 111 µM)
CCn1cc(CNC(=S)Nc2cccc3ccccc23)cn1 | > 46.6
CC(=O)Nc1ccc(S(=O)(=O)N(C)CC(=O)NCCOc2ccccc2)cc1 | > 60.8
CCOc1ccc2[nH]cc(C(=O)NCc3ccc(F)cc3)c(=O)c2c1 | 1.9 (≈ 5.58 µM)
O=C(COc1ccc([N+](=O)[O-])cc1Cl)N1CCc2ccccc21 | 2.4 (≈ 7.21 µM)
COc1ccc(-c2noc(CN(C)C3CCOCC3)n2)cc1 | > 45.5
NCCCS(=O)(=O)O.O.[Na+] | 2.9
Nc1nc(Nc2ccccc2F)nc(NCc2ccccc2)c1[N+](=O)[O-] | < 0.1
COc1ccc(C(=O)NC2CCCCCCC2)cc1OC | 15.2 (≈ 52.2 µM)
COc1ccc(-c2nc(N)ncc2-c2ccccc2OC)c(O)c1 | 23.3 (≈ 72.1 µM)
N#CCSc1nc2ccccc2o1 | 14.3 (≈ 75.2 µM)
COc1ccc(Nc2nc(-c3cccnc3)cs2)c(OC)c1 | 26.3 (≈ 83.9 µM)
O=[N+]([O-])c1cccc(CN2CCN(c3cccc4[nH]ccc34)CC2)c1 | 44 (≈ 131 µM)
CC#CC[N+](C)(CC#CC)CC(=O)c1ccccc1.[Br-] | 30
Nc1ccc(S(=O)(=O)NC(Cc2ccccc2)C(=O)O)cc1 (centres undefined) | 32.9 (≈ 103 µM)
C=CCn1c(NCc2ccc(OC)cc2O)nc2ccccc21 | 37.9 (≈ 123 µM)
COc1ccc(CN2CCN(C(=O)C3CCN(C(=O)Nc4ccccc4)CC3)CC2)cc1OC | 60.6 (≈ 130 µM)
NC(=O)c1ccc(NC(=O)COC(=O)C2CC3C=CC2C3)cc1 (centres undefined) | > 47.2

SMILES | solubility kinetic [µg/mL]
Cc1ccc(C(=O)NCC(=O)NCC(c2cccs2)N(C)C)cc1C (centres undefined) | > 53.9
COC(=O)COc1ccc(-c2nccc(-c3ccccn3)n2)cc1 | 2.4 (≈ 7.47 µM)
Cc1ccc(NC(=O)NCCCCc2ccccc2)cc1 | < 0.3
O=C(COC(=O)C1CC2C=CC1C2)Nc1c(Br)cc([N+](=O)[O-])cc1Br (centres undefined) | 57.2 (≈ 121 µM)
CC(=O)NC(CC(=O)OCC(=O)Nc1cc(S(=O)(=O)N2CCCCC2)ccc1C)c1ccccc1 (centres undefined) | > 75.2
CCC(OC(=O)c1ccco1)C(=O)NC1CCCC1 (centres undefined) | > 39.8
CCOC(=O)c1nn(-c2ccc(Cl)cc2)c(C)cc1=O | > 43.9
Cc1ccc(C)c(S(=O)(=O)N2CCNCC2)c1 | > 38.2
O=C(Nc1ccc(C(F)(F)F)cc1)c1ccc2ncsc2c1 | 4.6 (≈ 14.3 µM)
CCN(CC)C(=O)Cn1c(=O)oc2ccccc21 | > 37.2
CCCCc1cc(=O)oc2cc(OCC(=O)N3CCOCC3)ccc12 | 19.2 (≈ 55.6 µM)
COc1ccccc1CC(=O)O/N=C(\N)c1ccccn1 | > 42.8
O=C(NC1=NCCS1)c1ccccc1F | 33.4 (≈ 149 µM)
O=S(=O)(c1ccc(Cl)cc1)N1CCCCCC1 | 11.4 (≈ 41.6 µM)
O=C1CC(=O)N(Cc2ccccc2)C(=S)N1 | > 35.1
O=c1[nH]c2ccccc2nc1C(F)(F)F | > 32.1
CC(NC(=O)c1ccc(Br)s1)c1ccncc1 (centres undefined) | > 46.7
COc1ccccc1C1NC(=O)CCC1[N+](=O)[O-] (centres undefined) | > 37.5
O=C(CCCN1C(=O)c2cccnc2C1=O)Nc1ccccc1F | 46.4 (≈ 142 µM)
CCOc1cccc(C(=O)NC(c2ccccc2)C(C)C)c1 (centres undefined) | 5.1 (≈ 17.1 µM)
CC(=O)N(Cc1cccs1)Cc1cc2cc(C)c(C)cc2nc1Cl | 4.3 (≈ 12 µM)
CCCNC(=O)c1ccccc1NC(=O)C1=CSCCO1 | > 46
CC1CCN(C(=O)c2ccc(S(=O)(=O)N3CCOCC3)cc2)CC1 | 43.2 (≈ 123 µM)
Nc1ccc(CN2CCOCC2)cc1 | > 28.8

SMILES | solubility kinetic [µg/mL]
O=c1[nH]c(=O)n(-c2cccc(F)c2)c(O)c1/C=C1\C=Nc2ccccc21 | 2.9 (≈ 8.3 µM)
N#Cc1ccc(CSc2nnc3ccccn23)cc1 | > 39.9
COc1ccc(C/C(N)=N/OC(=O)c2ccc(Cl)cc2)cc1 | 0.6 (≈ 1.88 µM)
COc1cc(OC)c(C(=O)NC2CCCc3ccccc32)cc1OC (centres undefined) | 44.3 (≈ 130 µM)
O=C(NCc1ccco1)C1CC(c2ccc(Cl)c(Cl)c2)=NO1 (centres undefined) | 1.4 (≈ 4.13 µM)
O=C(O)c1ncsc1-c1ccccc1 | 29.1 (≈ 142 µM)
Cc1sc(NC(=O)c2c(F)cccc2F)nc1-c1ccccc1 | 0.6 (≈ 1.82 µM)
Cc1ccc(C(=O)OCC(=O)NCCc2ccc(S(N)(=O)=O)cc2)o1 | > 55
Cc1ccc(C2Nc3ccccc3C(=O)N2CCN2CCNC2=O)cc1 (centres undefined) | > 52.6
C/C(=N\O)c1c(O)cc(-c2ccccc2)n(-c2ccccc2)c1=O | > 48.1
Cc1ccc(CNC(=O)CCCc2c[nH]c3ccccc23)cc1 | 17.6 (≈ 57.4 µM)
Cc1cc(=O)oc2cc(OCC(=O)N3CCN(Cc4ccccc4)CC3)ccc12 | 56.7 (≈ 144 µM)
Cc1cccc2nc3c(nc12)CCCC3 | 6.4 (≈ 32.3 µM)
CCOC(=O)C1=C(C)Nc2ccccc2N=C1NC(=O)C1CCN(C(=O)c2ccccc2C)CC1 | 35.3 (≈ 74.4 µM)
O=C(O)c1ccc(-n2c(/C=C/c3ccccc3)nc3ccccc3c2=O)cc1 | > 55.3
Nc1nc(NCc2ccco2)nc(NCCO)c1[N+](=O)[O-] | > 44.1
N#Cc1ccc2c(c1)NC(=O)C1CCCN21 (centres undefined) | 27.8 (≈ 130 µM)
CCOc1ccc(OCCCC(=O)NCCOc2ccccc2OC)cc1 | > 56
O=C(O)C1CCCN1S(=O)(=O)c1ccc(Cl)cc1 (centres undefined) | > 43.5
O=C(O)c1ccccc1CSc1ncccc1C(=O)O | > 43.4
CCOC(=O)C1CCCN(CC(O)COCc2ccccc2OC)C1 (centres undefined) | > 52.7
CCCCS(=O)(=O)N1CCCC(C(=O)NCCc2ccccc2)C1 (centres undefined) | 14.7 (≈ 41.7 µM)
Cc1ccc(N2C(=O)C3C4C=CC(CC4)C3C2=O)cc1Br (centres undefined) | < 0.7
COc1ccc(Cl)cc1NC(=O)COC(=O)C1CC(=O)N(Cc2ccccc2)C1 (centres undefined) | 57.4 (≈ 138 µM)

SMILES | solubility kinetic [µg/mL]
COC(=O)c1cc(NC(=O)COC(=O)C2COc3ccccc3O2)cc(C(=O)OC)c1 (centres undefined) | 54.7 (≈ 127 µM)
CN1CCCN(Cc2nc(-c3ccc(Cl)cc3)no2)CC1 | 40.4 (≈ 132 µM)
CC12CCC(C/C1=N\OC(=O)c1c(F)cccc1F)C2(C)C (centres undefined) | 21.5 (≈ 70 µM)
CC(NC(=O)C(c1ccccc1)c1ccccc1)C(=O)N1CCCCC1 (centres undefined) | 49.3 (≈ 141 µM)
NC1=NC(=O)/C(=C\c2ccco2)S1 | > 29.1
COc1ccc(CCc2nc(-c3cccs3)no2)cc1 | 2.3 (≈ 8.03 µM)
CC1CCCC(NC(=O)CSc2ncnc3ccccc23)C1C (centres undefined) | 24.1 (≈ 73.1 µM)
O=C(Cn1ccc([N+](=O)[O-])n1)NCc1ccccc1 | > 39
CCCN1CCC(NC2CCC(O)CC2)CC1 (centres undefined) | 27.1 (≈ 113 µM)
COc1ccc(OCC(=O)N2c3ccccc3CC2C)c([N+](=O)[O-])c1 (centres undefined) | 17.3 (≈ 50.5 µM)
CC1CCCN(C(=O)Cc2cccc3ccccc23)C1 (centres undefined) | 38.3 (≈ 143 µM)
CCOC(=O)CN/C=C(\C#N)c1ccc(F)cc1 | 36.4 (≈ 147 µM)
Cc1ccc(CCC(=O)Nc2ccc(CC(=O)O)cc2)o1 | > 43.1
Cc1cccc(Cc2ncc(C(F)(F)F)cc2Cl)c1 | < 0.6
O=S(=O)(Nc1ccc(Cl)cn1)c1cccs1 | > 41.2
Cc1nc(N2CCN(C)CC2)c2c3c(sc2n1)CCCC3 | 41.4 (≈ 137 µM)
Cc1cc(C)c2c(c1)C1(OCCO1)C(=O)N2 | 16.1 (≈ 73.4 µM)
C=CCN1C(=O)C2(OCCCO2)c2ccccc21 | 36.7 (≈ 150 µM)
Clc1ccc2c(NCc3cccs3)ncnc2c1 | 4.5 (≈ 16.3 µM)
O=C(Nc1ccc(F)c(Cl)c1)c1cc(-c2ccco2)on1 | < 0.3
CCOC(=O)N1CCN(C(=O)c2ccccc2NC(C)=O)CC1 | > 47.9
CC1CCN(C(=O)COC(=O)c2ccc3c(c2)OCCO3)CC1 | > 47.9
COc1ccc([N+](=O)[O-])cc1NC(=O)COC(=O)Cn1cnc2ccccc2c1=O | > 61.9
CCOc1cccc(C(=O)Nc2ccc3oc(-c4cccnc4)nc3c2)c1 | < 0.3

SMILES | solubility kinetic [µg/mL]
[Cl-].c1ccc(Cn2c[n+](Cc3ccccc3)cn2)cc1 | > 42.9
Cc1cc(C)c(/C=C(\C#N)S(=O)(=O)c2ccccc2)[nH]1 | 0.5 (≈ 1.75 µM)
O=C(C1CCC(=O)N1Cc1cccs1)N1CCOCC1 (centres undefined) | > 44.2
O=C(COC(=O)CCc1ccccc1)NCc1ccc2c(c1)OCO2 | > 51.2
O=C(CN1C(=O)NC2(CCCCCC2)C1=O)Nc1ccc(Cl)c([N+](=O)[O-])c1 | 5.8 (≈ 14.7 µM)
COCC(C)NC(=O)C1c2ccccc2Oc2ccccc21 (centres undefined) | 40.1 (≈ 135 µM)
COc1ccccc1NC(=O)O/N=C(\N)c1ccccc1 | > 42.8
O=C(NCCc1ccc([N+](=O)[O-])cc1)c1ccccc1 | 14.2 (≈ 52.5 µM)
CCOC(=O)/C(C#N)=C/Nc1cc(C(C)(C)C)sc1C(C)=O | < 0.3
COc1cc(/C=C(\C#N)C(=O)NC(C)C)cc(Cl)c1O | 28.4 (≈ 96.4 µM)
COCc1ccc(C(=O)NC2CCSc3ccccc32)cc1 (centres undefined) | 16.8 (≈ 53.6 µM)
CC1CCCC(C)N1C(=O)CN1c2cccc3cccc(c23)S1(=O)=O (centres undefined) | 6.7 (≈ 18.7 µM)
COC(=O)c1ccc(NC(=S)NN2CCOCC2)cc1 | > 44.3
CCC1(C)Cc2ccccc2-c2nc(SC)[nH]c(=O)c21 (centres undefined) | < 0.3
C=C(C)c1cccc(C(C)(C)NC(=O)Nc2nncs2)c1 | > 45.4
COc1ccccc1C(NC(C)=O)c1c(O)ccc2ccc(O)cc12 (centres undefined) | > 50.6
COc1ccc(NC(=O)COC(=O)C2=COCCO2)cc1OC | > 48.5
CN(C)/C=C/C(=O)c1ccc2noc(-c3cccc(F)c3)c2c1 | 7.3 (≈ 23.5 µM)
CN(C(=O)C(C)(C)C)C1c2c(ccc3ccccc23)OCC1CO (centres undefined) | 6.6 (≈ 20.2 µM)
Cc1ccccc1NC(=S)N(CCN(C)C)C(C)c1cccnc1 (centres undefined) | > 51.4
CN1CCCNc2nc3ccccc3nc21 | > 32.1
CC(C)(C)C(=O)C1=C(O)C(=O)N(Cc2ccccc2)C1c1ccccc1F (centres undefined) | > 55.1
COc1cccc(/C=C/C(=O)Nc2cccc(C(C)=O)c2)c1OC | 4.3 (≈ 13.2 µM)
